For 16 compounds, T/C results are on record in PubChem BioAssay AID318 (DTP/NCI, 2004).

The assay relates to BDF1 mice, P815 leukemia ip, survival T/C. As to the kind of experiment: NCI In Vivo Anticancer Drug Screen. Data for tumor model P815 Mast Cell Leukemia (Ascitic) (intraperitoneal) in B6D2F1 (BDF1) mice. The note with it: endpoint: survival time, mean or median, higher = longer survival. As for the experimental part:
The antitumor activity of compounds was measured in mice bearing transplantable tumors. Survival or tumor size were measured and the results are expressed as the measurement made in the treated group (T) divided by the measurement made in the vehicle treated control group (C). The tumor model used in this assay is P815 Mast Cell Leukemia (Ascitic) (intraperitoneal) in B6D2F1 (BDF1) mice

Setting [1] is: dose: 5.0 mg/kg/injection, schedule: Q01DX010 (ip), vehicle: saline.
[2] abbreviates: dose: 10.0 mg/kg/injection, schedule: Q01DX010 (ip), vehicle: saline.
Where [3] appears, read: dose: 20.0 mg/kg/injection, schedule: Q01DX010 (ip), vehicle: saline.
Setting [4] is: dose: 40.0 mg/kg/injection, schedule: Q01DX010 (ip), vehicle: saline.
Where [5] appears, read: dose: 25.0 mg/kg/injection, schedule: Q01DX010 (ip), vehicle: saline.
Setting [6] is: dose: 50.0 mg/kg/injection, schedule: Q01DX010 (ip), vehicle: saline.
[7] abbreviates: dose: 100.0 mg/kg/injection, schedule: Q01DX010 (ip), vehicle: saline.

Structures are written as SMILES. “And” between values parts separate entries of the source, which are not always exact repeats. Equal values may be shown once. Inconclusive results and toxic doses are left out.

With `CN(C)c1ccc(/C=C/c2ccnc3ccccc23)cc1`, the T/C is 100 % of control under setting [1]; 88 % of control and 94 % of control under setting [2]; 88 % of control and 100 % of control under setting [3]; 100 % of control under setting [4].

For `CN(C)c1nc(N(C)C)nc(N(C)C)n1`, the T/C is, setting by setting: (dose: 18.8 mg/kg/injection, schedule: Q01DX010 (ip), vehicle: saline) 94 % of control and 102 % of control; (dose: 37.5 mg/kg/injection, schedule: Q01DX010 (ip), vehicle: saline) 94 % of control; (dose: 75.0 mg/kg/injection, schedule: Q01DX010 (ip), vehicle: saline) 97 % of control and 102 % of control; (dose: 150.0 mg/kg/injection, schedule: Q01DX010 (ip), vehicle: saline) 102 % of control and 107 % of control.

Take `CC[C@]1(O)C[C@H]2CN(CCc3c([nH]c4ccccc34)[C@@](C(=O)OC)(c3cc4c(cc3OC)N(C=O)[C@H]3[C@@](O)(C(=O)OC)[C@H](OC(C)=O)[C@]5(CC)C=CCN6CC[C@]43[C@@H]65)C2)C1`: the T/C (dose: 0.09 mg/kg/injection, schedule: Q01DX015 (ip), vehicle: carboxymethylcellulose (CMC)) was 185 % of control; the T/C (dose: 0.13 mg/kg/injection, schedule: Q01DX015 (ip), vehicle: carboxymethylcellulose (CMC)) is 183 % of control; the T/C (dose: 0.2 mg/kg/injection, schedule: Q01DX015 (ip), vehicle: carboxymethylcellulose (CMC)) was 213 % of control; the T/C (dose: 0.2 mg/kg/injection, schedule: Q01DX015 (ip), vehicle: saline) is 107 % of control; the T/C (dose: 0.3 mg/kg/injection, schedule: Q01DX015 (ip), vehicle: carboxymethylcellulose (CMC)) was 183 % of control; the T/C (dose: 0.3 mg/kg/injection, schedule: Q01DX015 (ip), vehicle: saline) was 95 % of control. For the same compound, the T/C by setting is: (dose: 0.45 mg/kg/injection, schedule: Q01DX015 (ip), vehicle: carboxymethylcellulose (CMC)) 102 % of control; (dose: 0.8 mg/kg/injection, schedule: Q01DX001 (ip), vehicle: saline) 170 % of control; (dose: 1.8 mg/kg/injection, schedule: Q01DX001 (ip), vehicle: saline) 153 % of control; (dose: 4.3 mg/kg/injection, schedule: Q01DX001 (ip), vehicle: saline) 113 % of control; (dose: 12.5 micrograms/kg/injection, schedule: Q01DX015 (ip), vehicle: carboxymethylcellulose (CMC)) 116 % of control; (dose: 25.0 micrograms/kg/injection, schedule: Q01DX015 (ip), vehicle: carboxymethylcellulose (CMC)) 120 % of control. Also, the T/C runs as follows: (dose: 100.0 micrograms/kg/injection, schedule: Q01DX015 (ip), vehicle: carboxymethylcellulose (CMC)) 170 % of control; (dose: 150.0 micrograms/kg/injection, schedule: Q01DX015 (ip), vehicle: saline) 158 % of control.

As to `CC/C(=C(/CC)c1ccc(O)cc1)c1ccc(O)cc1`, the T/C runs as follows: (dose: 12.5 mg/kg/injection, schedule: Q01DX010 (sc), vehicle: steriod suspending solution) 100 % of control and 104 % of control; (dose: 25.0 mg/kg/injection, schedule: Q01DX010 (sc), vehicle: steriod suspending solution) 100 % of control and 109 % of control; (dose: 50.0 mg/kg/injection, schedule: Q01DX010 (sc), vehicle: steriod suspending solution) 100 % of control and 104 % of control; (dose: 100.0 mg/kg/injection, schedule: Q01DX010 (sc), vehicle: steriod suspending solution) 100 % of control and 109 % of control.

For the compound `CCCCNc1ncnc2c1cnn2C`, the T/C reads like this: (dose: 31.25 mg/kg/injection, schedule: Q01DX010 (ip), vehicle: saline) 95 % of control and 100 % of control; (dose: 62.5 mg/kg/injection, schedule: Q01DX010 (ip), vehicle: saline) 108 % of control.

For the compound `CN(Cc1cnc2nc(N)nc(N)c2n1)c1c(Cl)cc(C(=O)NC(CCC(=O)O)C(=O)O)cc1Cl` (stereo not given), the T/C is 150 % of control (dose: 5.0 mg/kg/injection, schedule: Q01DX015 (ip), vehicle: carboxymethylcellulose (CMC)); 164 % of control (dose: 10.0 mg/kg/injection, schedule: Q01DX015 (ip), vehicle: carboxymethylcellulose (CMC)); 166 % of control (dose: 13.2 mg/kg/injection, schedule: Q01DX015 (ip), vehicle: carboxymethylcellulose (CMC)); 164 % of control (dose: 20.0 mg/kg/injection, schedule: Q01DX015 (ip), vehicle: carboxymethylcellulose (CMC)); 190 % of control (dose: 25.0 mg/kg/injection, schedule: Q01DX015 (ip), vehicle: carboxymethylcellulose (CMC)); 181 % of control (dose: 30.0 mg/kg/injection, schedule: Q01DX015 (ip), vehicle: carboxymethylcellulose (CMC)). Also, the T/C reads like this: (dose: 45.0 mg/kg/injection, schedule: Q01DX015 (ip), vehicle: carboxymethylcellulose (CMC)) 179 % of control; (dose: 67.5 mg/kg/injection, schedule: Q01DX015 (ip), vehicle: carboxymethylcellulose (CMC)) 164 % of control; (dose: 100.0 mg/kg/injection, schedule: Q01DX015 (ip), vehicle: carboxymethylcellulose (CMC)) 121 % of control.

Take `CNc1nc(Nc2ccc(C3=NCCN3)cc2)nc(Nc2ccc(C3=NCCN3)cc2)n1`: the T/C (dose: 13.3 mg/kg/injection, schedule: Q01DX010 (ip), vehicle: saline) was 108 % of control; the T/C under setting [3] is 108 % of control; the T/C (dose: 30.0 mg/kg/injection, schedule: Q01DX010 (ip), vehicle: saline) is 108 % of control; the T/C (dose: 45.0 mg/kg/injection, schedule: Q01DX010 (ip), vehicle: saline) was 116 % of control.

Consider `CC1CCOS(=O)O1` (stereo not given), for which the T/C by setting is: under setting [2], 100 % of control; under setting [3], 100 % of control; under setting [4], 100 % of control; (dose: 80.0 mg/kg/injection, schedule: Q01DX010 (ip), vehicle: saline) 88 % of control.

Take `CSc1ncnc2nc[nH]c12`: the T/C is, setting by setting: under setting [5], 100 % of control; under setting [6], 100 % of control and 115 % of control; under setting [7], 100 % of control and 105 % of control; (dose: 200.0 mg/kg/injection, schedule: Q01DX010 (ip), vehicle: saline) 105 % of control and 110 % of control.

Take `O=C(Nc1ccc(C2=NCCN2)cc1)c1ccc(C(=O)Nc2ccc(C3=NCCN3)cc2)c(Cl)c1`: the T/C was 109 % of control (dose: 1.5 mg/kg/injection, schedule: Q01DX015 (ip), vehicle: carboxymethylcellulose (CMC)); 182 % of control (dose: 6.0 mg/kg/injection, schedule: Q01DX015 (ip), vehicle: carboxymethylcellulose (CMC)); 176 % of control (dose: 9.0 mg/kg/injection, schedule: Q01DX015 (ip), vehicle: carboxymethylcellulose (CMC)).

With `C[C@@H]1C[C@@H]([C@H](O)CC2CC(=O)NC(=O)C2)C(=O)[C@@H](C)C1`, the T/C under setting [1] was 109 % of control and 118 % of control; the T/C under setting [2] is 104 % of control and 109 % of control; the T/C under setting [3] is 109 % of control and 118 % of control; the T/C under setting [4] is 118 % of control.

For the compound `CCOC(=O)c1[nH]c2ccccc2c1CN(CCCl)CCCl`, the T/C reads like this: under setting [2], 105 % of control; under setting [3], 115 % of control; under setting [4], 115 % of control.

Regarding `NC12CC3CC(CC(C3)C1)C2`, the T/C is 100 % of control under setting [5], 100 % of control under setting [6] and 105 % of control under setting [7].

For the compound `c1ccc(CNc2ncnc3[nH]ncc23)cc1`, the T/C reads like this: (dose: 8.0 mg/kg/injection, schedule: Q01DX010 (ip), vehicle: saline) 100 % of control and 109 % of control; (dose: 16.0 mg/kg/injection, schedule: Q01DX010 (ip), vehicle: saline) 100 % of control; (dose: 32.0 mg/kg/injection, schedule: Q01DX010 (ip), vehicle: saline) 109 % of control; (dose: 64.0 mg/kg/injection, schedule: Q01DX010 (ip), vehicle: saline) 95 % of control and 109 % of control.

Consider `Cc1c(O)ccc(=O)n1O`, for which the T/C runs as follows: (dose: 49.0 mg/kg/injection, schedule: Q01DX015 (ip), vehicle: other) 95 % of control; (dose: 73.0 mg/kg/injection, schedule: Q01DX015 (ip), vehicle: other) 113 % of control; (dose: 110.0 mg/kg/injection, schedule: Q01DX015 (ip), vehicle: other) 105 % of control; (dose: 165.0 mg/kg/injection, schedule: Q01DX015 (ip), vehicle: other) 100 % of control; (dose: 247.0 mg/kg/injection, schedule: Q01DX015 (ip), vehicle: other) 95 % of control.

Take `Cc1cc(N(CCCl)CCCl)ccc1N=Nc1ccccc1C(=O)O`: the T/C reads like this: under setting [1], 105 % of control and 111 % of control; under setting [2], 105 % of control and 111 % of control; under setting [3], 111 % of control; under setting [4], 88 % of control.
